Experimental data: patent publication US10047069B2, “Compositions comprising an inhibitor of lysine specific demethylase-1” (Celgene Quanticel Research, Inc., priority 2015, dated 2018)
In brackets after ≈: the same amount, converted by molar mass.

How the values were obtained:
Type in all cases: physicochemical
[1] = Stability post-storage at 40° C./75% RH assessed by XRPD; settings: form change assessed by XRPD
Experimental: (§1) Representative samples for the twenty-six forms were further analysed by NMR/IC and DSC. The stability of the samples after storage at 40° C./75% RH was also assessed by XRPD. Solubility in FeSSIF media was determined for selected samples. […] IC was employed to determine the molar equivalence for inorganic counterions, sulphate and phosphate.

[2] = Salt screen assessment compared to the HCl salt
Experimental: as §1

[3] = Thermodynamic solubility in FeSSIF; settings: for Solubility in FeSSiF: fed state simulated intestinal fluid (FeSSIF), equilibrated at 25° C. for 24 hours; for XRPD of residue: residue of the FeSSIF solubility test, analysed by XRPD as a damp solid
Experimental: Solubility was determined by suspending sufficient compound in fed state simulated intestinal fluid (FeSSIF) to give a maximum final concentration of >3 mg/ml of the parent free-form of the compound. The suspension was equilibrated at 25° C. for 24 hours then the pH was measured. The suspension was then filtered through a glass fibre C filter. The residue was analysed by XRPD as a damp solid. The filtrate was diluted by an appropriate factor prior to analysis by HPLC. Quantitation by HPLC was performed with reference to a standard solution of approximately 0.2 mg/ml in DMSO. Different volumes of the standard, diluted and undiluted sample solutions were injected. The solubility was calculated using the peak areas determined by integration of the peak found at the same retention time as the principal peak in the standard injection. Analysis was performed on an Agilent HP1100 series system equipped with a diode array detector and using ChemStation software vB.04.03.

[4] = Thermal stability from onset of DSC events; settings: onsets of DSC events greater than 200° C.
Experimental: DSC data were collected on a Mettler DSC 823E equipped with a 34 position auto-sampler. The instrument was calibrated for energy and temperature using certified indium. Typically, 0.9-6 mg of each sample, in a pin-holed aluminum pan, was heated at 10° C./min from 25° C. to 350° C. A nitrogen purge at 50 ml/min was maintained over the sample. The instrument control and data analysis software was STARe v12.1.
The twenty remaining forms have thermal events occurring from as low as ˜30° C. These may be solvated/hydrated forms.

| SMILES | Stability post-storage at 40° C./75% RH [1] | also measured |
| --- | --- | --- |
| COc1ccc(-c2c(-c3ccc(C#N)c(F)c3)nc(N3CCC(N)CC3)n(C)c2=O)cc1F [MLNA 1, 4-[2-(4-aminopiperidin-1-yl)-5-(3-fluoro-4-methoxyphenyl)-1-methyl-6-oxo-1,6-dihydropyrimidin-4-yl]-2-fluorobenzonitrile] | Pattern change | – |
| COc1ccc(-c2c(-c3ccc(C#N)c(F)c3)nc(N3CCC(N)CC3)n(C)c2=O)cc1F [pTSA 2, 4-[2-(4-aminopiperidin-1-yl)-5-(3-fluoro-4-methoxyphenyl)-1-methyl-6-oxo-1,6-dihydropyrimidin-4-yl]-2-fluorobenzonitrile] | Slight change in pattern | – |
| COc1ccc(-c2c(-c3ccc(C#N)c(F)c3)nc(N3CCC(N)CC3)n(C)c2=O)cc1F [pTSA 1, 4-[2-(4-aminopiperidin-1-yl)-5-(3-fluoro-4-methoxyphenyl)-1-methyl-6-oxo-1,6-dihydropyrimidin-4-yl]-2-fluorobenzonitrile] | No form change | stability and solubility when compared to the HCl salt [2]: improved stability and solubility; Solubility in FeSSiF [3]: 870 µg/mL (≈ 1930 µM); XRPD of residue [3]: pTSA 1; thermal stability [4]: good thermal stability |
| COc1ccc(-c2c(-c3ccc(C#N)c(F)c3)nc(N3CCC(N)CC3)n(C)c2=O)cc1F [FUA 1, 4-[2-(4-aminopiperidin-1-yl)-5-(3-fluoro-4-methoxyphenyl)-1-methyl-6-oxo-1,6-dihydropyrimidin-4-yl]-2-fluorobenzonitrile] | Pattern change | – |
| COc1ccc(-c2c(-c3ccc(C#N)c(F)c3)nc(N3CCC(N)CC3)n(C)c2=O)cc1F [MSA 1, 4-[2-(4-aminopiperidin-1-yl)-5-(3-fluoro-4-methoxyphenyl)-1-methyl-6-oxo-1,6-dihydropyrimidin-4-yl]-2-fluorobenzonitrile] | No form change | stability and solubility when compared to the HCl salt [2]: improved stability and solubility; Solubility in FeSSiF [3]: 1010 µg/mL (≈ 2240 µM); XRPD of residue [3]: Largely amorphous; thermal stability [4]: good thermal stability |
| COc1ccc(-c2c(-c3ccc(C#N)c(F)c3)nc(N3CCC(N)CC3)n(C)c2=O)cc1F [free base, 4-[2-(4-aminopiperidin-1-yl)-5-(3-fluoro-4-methoxyphenyl)-1-methyl-6-oxo-1,6-dihydropyrimidin-4-yl]-2-fluorobenzonitrile] | – | Solubility in FeSSiF [3]: 280 µg/mL (≈ 620 µM) |
| COc1ccc(-c2c(-c3ccc(C#N)c(F)c3)nc(N3CCC(N)CC3)n(C)c2=O)cc1F [MSA 2, 4-[2-(4-aminopiperidin-1-yl)-5-(3-fluoro-4-methoxyphenyl)-1-methyl-6-oxo-1,6-dihydropyrimidin-4-yl]-2-fluorobenzonitrile] | Extra peaks observed | – |
| COc1ccc(-c2c(-c3ccc(C#N)c(F)c3)nc(N3CCC(N)CC3)n(C)c2=O)cc1F [MLNA 2, 4-[2-(4-aminopiperidin-1-yl)-5-(3-fluoro-4-methoxyphenyl)-1-methyl-6-oxo-1,6-dihydropyrimidin-4-yl]-2-fluorobenzonitrile] | Pattern change | – |
| COc1ccc(-c2c(-c3ccc(C#N)c(F)c3)nc(N3CCC(N)CC3)n(C)c2=O)cc1F [BA 2, 4-[2-(4-aminopiperidin-1-yl)-5-(3-fluoro-4-methoxyphenyl)-1-methyl-6-oxo-1,6-dihydropyrimidin-4-yl]-2-fluorobenzonitrile] | No significant | – |
| COc1ccc(-c2c(-c3ccc(C#N)c(F)c3)nc(N3CCC(N)CC3)n(C)c2=O)cc1F [BSA 1, 4-[2-(4-aminopiperidin-1-yl)-5-(3-fluoro-4-methoxyphenyl)-1-methyl-6-oxo-1,6-dihydropyrimidin-4-yl]-2-fluorobenzonitrile] | No form change | stability and solubility when compared to the HCl salt [2]: improved stability and solubility; Solubility in FeSSiF [3]: 840 µg/mL (≈ 1860 µM); XRPD of residue [3]: BSA 1 - poor; thermal stability [4]: good thermal stability |
| COc1ccc(-c2c(-c3ccc(C#N)c(F)c3)nc(N3CCC(N)CC3)n(C)c2=O)cc1F [TAR 1, 4-[2-(4-aminopiperidin-1-yl)-5-(3-fluoro-4-methoxyphenyl)-1-methyl-6-oxo-1,6-dihydropyrimidin-4-yl]-2-fluorobenzonitrile] | Pattern change | – |
| COc1ccc(-c2c(-c3ccc(C#N)c(F)c3)nc(N3CCC(N)CC3)n(C)c2=O)cc1F [CA 2, 4-[2-(4-aminopiperidin-1-yl)-5-(3-fluoro-4-methoxyphenyl)-1-methyl-6-oxo-1,6-dihydropyrimidin-4-yl]-2-fluorobenzonitrile] | No form change | – |
| COc1ccc(-c2c(-c3ccc(C#N)c(F)c3)nc(N3CCC(N)CC3)n(C)c2=O)cc1F [MA 3, 4-[2-(4-aminopiperidin-1-yl)-5-(3-fluoro-4-methoxyphenyl)-1-methyl-6-oxo-1,6-dihydropyrimidin-4-yl]-2-fluorobenzonitrile] | Pattern change | – |
| COc1ccc(-c2c(-c3ccc(C#N)c(F)c3)nc(N3CCC(N)CC3)n(C)c2=O)cc1F [MA 2, 4-[2-(4-aminopiperidin-1-yl)-5-(3-fluoro-4-methoxyphenyl)-1-methyl-6-oxo-1,6-dihydropyrimidin-4-yl]-2-fluorobenzonitrile] | Pattern change | – |
| COc1ccc(-c2c(-c3ccc(C#N)c(F)c3)nc(N3CCC(N)CC3)n(C)c2=O)cc1F [FUA 2, 4-[2-(4-aminopiperidin-1-yl)-5-(3-fluoro-4-methoxyphenyl)-1-methyl-6-oxo-1,6-dihydropyrimidin-4-yl]-2-fluorobenzonitrile] | Increased | – |
| COc1ccc(-c2c(-c3ccc(C#N)c(F)c3)nc(N3CCC(N)CC3)n(C)c2=O)cc1F [BSA 2, 4-[2-(4-aminopiperidin-1-yl)-5-(3-fluoro-4-methoxyphenyl)-1-methyl-6-oxo-1,6-dihydropyrimidin-4-yl]-2-fluorobenzonitrile] | Extra peaks observed | – |
| COc1ccc(-c2c(-c3ccc(C#N)c(F)c3)nc(N3CCC(N)CC3)n(C)c2=O)cc1F [FUA 3, 4-[2-(4-aminopiperidin-1-yl)-5-(3-fluoro-4-methoxyphenyl)-1-methyl-6-oxo-1,6-dihydropyrimidin-4-yl]-2-fluorobenzonitrile] | Pattern change | – |
| COc1ccc(-c2c(-c3ccc(C#N)c(F)c3)nc(N3CCC(N)CC3)n(C)c2=O)cc1F [SUCA 2, 4-[2-(4-aminopiperidin-1-yl)-5-(3-fluoro-4-methoxyphenyl)-1-methyl-6-oxo-1,6-dihydropyrimidin-4-yl]-2-fluorobenzonitrile] | Pattern change | – |
| COc1ccc(-c2c(-c3ccc(C#N)c(F)c3)nc(N3CCC(N)CC3)n(C)c2=O)cc1F [MA 1, 4-[2-(4-aminopiperidin-1-yl)-5-(3-fluoro-4-methoxyphenyl)-1-methyl-6-oxo-1,6-dihydropyrimidin-4-yl]-2-fluorobenzonitrile] | Amorphous | Solubility in FeSSiF [3]: 630 µg/mL (≈ 1400 µM); XRPD of residue [3]: Amorphous |
| COc1ccc(-c2c(-c3ccc(C#N)c(F)c3)nc(N3CCC(N)CC3)n(C)c2=O)cc1F [CA 1, 4-[2-(4-aminopiperidin-1-yl)-5-(3-fluoro-4-methoxyphenyl)-1-methyl-6-oxo-1,6-dihydropyrimidin-4-yl]-2-fluorobenzonitrile] | Pattern change | – |
| COc1ccc(-c2c(-c3ccc(C#N)c(F)c3)nc(N3CCC(N)CC3)n(C)c2=O)cc1F [SUCA 1, 4-[2-(4-aminopiperidin-1-yl)-5-(3-fluoro-4-methoxyphenyl)-1-methyl-6-oxo-1,6-dihydropyrimidin-4-yl]-2-fluorobenzonitrile] | – | Solubility in FeSSiF [3]: 960 µg/mL (≈ 2130 µM); XRPD of residue [3]: Amorphous |
| COc1ccc(-c2c(-c3ccc(C#N)c(F)c3)nc(N3CCC(N)CC3)n(C)c2=O)cc1F [PHOA 3, 4-[2-(4-aminopiperidin-1-yl)-5-(3-fluoro-4-methoxyphenyl)-1-methyl-6-oxo-1,6-dihydropyrimidin-4-yl]-2-fluorobenzonitrile] | Reduced crystallinity | – |
| COc1ccc(-c2c(-c3ccc(C#N)c(F)c3)nc(N3CCC(N)CC3)n(C)c2=O)cc1F [PHOA 2, 4-[2-(4-aminopiperidin-1-yl)-5-(3-fluoro-4-methoxyphenyl)-1-methyl-6-oxo-1,6-dihydropyrimidin-4-yl]-2-fluorobenzonitrile] | Pattern change | – |
